Targets include Histamine H2 receptor (Homo sapiens, UniProt P25021); D(1A) dopamine receptor (Homo sapiens, UniProt P21728); Substance-P receptor (Homo sapiens, UniProt P25103).
For assay [1], the target named is Beta-1 adrenergic receptor (Homo sapiens, UniProt P08588). Type of assay: functional, cell-based.
The target of assay [2] is T1, Alpha-2A adrenergic receptor (Homo sapiens, UniProt P08913).
T1 sequence (P08913 whole entry): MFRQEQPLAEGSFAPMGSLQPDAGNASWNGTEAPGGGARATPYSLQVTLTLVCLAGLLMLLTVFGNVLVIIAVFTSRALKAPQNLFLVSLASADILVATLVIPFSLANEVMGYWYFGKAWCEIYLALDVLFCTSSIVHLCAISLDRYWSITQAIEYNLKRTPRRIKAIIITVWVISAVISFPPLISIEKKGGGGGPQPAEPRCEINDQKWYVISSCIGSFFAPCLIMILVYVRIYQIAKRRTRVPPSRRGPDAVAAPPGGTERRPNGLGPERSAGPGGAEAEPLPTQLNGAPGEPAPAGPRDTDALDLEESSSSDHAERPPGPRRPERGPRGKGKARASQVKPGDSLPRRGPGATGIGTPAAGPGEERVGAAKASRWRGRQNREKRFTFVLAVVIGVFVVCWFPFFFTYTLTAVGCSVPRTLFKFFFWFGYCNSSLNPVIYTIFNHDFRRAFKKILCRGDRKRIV

Assay [3] concerns the target T2, Peroxisome proliferator-activated receptor gamma (Homo sapiens, UniProt P37231).
T2 sequence (P37231 whole entry): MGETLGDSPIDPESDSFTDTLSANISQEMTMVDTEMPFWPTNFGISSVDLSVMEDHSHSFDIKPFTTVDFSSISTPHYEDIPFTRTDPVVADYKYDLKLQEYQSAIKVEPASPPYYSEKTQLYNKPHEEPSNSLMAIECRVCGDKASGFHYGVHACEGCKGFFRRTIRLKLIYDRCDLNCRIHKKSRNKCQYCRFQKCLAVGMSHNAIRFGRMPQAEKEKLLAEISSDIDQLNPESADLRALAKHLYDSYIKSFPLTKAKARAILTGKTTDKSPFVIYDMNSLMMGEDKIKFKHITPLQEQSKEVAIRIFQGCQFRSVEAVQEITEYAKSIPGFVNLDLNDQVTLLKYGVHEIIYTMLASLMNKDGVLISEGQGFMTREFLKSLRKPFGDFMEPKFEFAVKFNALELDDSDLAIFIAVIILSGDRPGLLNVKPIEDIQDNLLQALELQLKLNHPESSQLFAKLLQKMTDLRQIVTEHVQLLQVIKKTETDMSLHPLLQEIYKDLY
Type of assay: functional.

For assay [4], the target named is Sodium channel protein type 5 subunit alpha (Homo sapiens, UniProt Q14524). The assay is classed as functional, cell-based.
Chain of Sodium channel protein type 5 subunit alpha (Q14524 whole entry): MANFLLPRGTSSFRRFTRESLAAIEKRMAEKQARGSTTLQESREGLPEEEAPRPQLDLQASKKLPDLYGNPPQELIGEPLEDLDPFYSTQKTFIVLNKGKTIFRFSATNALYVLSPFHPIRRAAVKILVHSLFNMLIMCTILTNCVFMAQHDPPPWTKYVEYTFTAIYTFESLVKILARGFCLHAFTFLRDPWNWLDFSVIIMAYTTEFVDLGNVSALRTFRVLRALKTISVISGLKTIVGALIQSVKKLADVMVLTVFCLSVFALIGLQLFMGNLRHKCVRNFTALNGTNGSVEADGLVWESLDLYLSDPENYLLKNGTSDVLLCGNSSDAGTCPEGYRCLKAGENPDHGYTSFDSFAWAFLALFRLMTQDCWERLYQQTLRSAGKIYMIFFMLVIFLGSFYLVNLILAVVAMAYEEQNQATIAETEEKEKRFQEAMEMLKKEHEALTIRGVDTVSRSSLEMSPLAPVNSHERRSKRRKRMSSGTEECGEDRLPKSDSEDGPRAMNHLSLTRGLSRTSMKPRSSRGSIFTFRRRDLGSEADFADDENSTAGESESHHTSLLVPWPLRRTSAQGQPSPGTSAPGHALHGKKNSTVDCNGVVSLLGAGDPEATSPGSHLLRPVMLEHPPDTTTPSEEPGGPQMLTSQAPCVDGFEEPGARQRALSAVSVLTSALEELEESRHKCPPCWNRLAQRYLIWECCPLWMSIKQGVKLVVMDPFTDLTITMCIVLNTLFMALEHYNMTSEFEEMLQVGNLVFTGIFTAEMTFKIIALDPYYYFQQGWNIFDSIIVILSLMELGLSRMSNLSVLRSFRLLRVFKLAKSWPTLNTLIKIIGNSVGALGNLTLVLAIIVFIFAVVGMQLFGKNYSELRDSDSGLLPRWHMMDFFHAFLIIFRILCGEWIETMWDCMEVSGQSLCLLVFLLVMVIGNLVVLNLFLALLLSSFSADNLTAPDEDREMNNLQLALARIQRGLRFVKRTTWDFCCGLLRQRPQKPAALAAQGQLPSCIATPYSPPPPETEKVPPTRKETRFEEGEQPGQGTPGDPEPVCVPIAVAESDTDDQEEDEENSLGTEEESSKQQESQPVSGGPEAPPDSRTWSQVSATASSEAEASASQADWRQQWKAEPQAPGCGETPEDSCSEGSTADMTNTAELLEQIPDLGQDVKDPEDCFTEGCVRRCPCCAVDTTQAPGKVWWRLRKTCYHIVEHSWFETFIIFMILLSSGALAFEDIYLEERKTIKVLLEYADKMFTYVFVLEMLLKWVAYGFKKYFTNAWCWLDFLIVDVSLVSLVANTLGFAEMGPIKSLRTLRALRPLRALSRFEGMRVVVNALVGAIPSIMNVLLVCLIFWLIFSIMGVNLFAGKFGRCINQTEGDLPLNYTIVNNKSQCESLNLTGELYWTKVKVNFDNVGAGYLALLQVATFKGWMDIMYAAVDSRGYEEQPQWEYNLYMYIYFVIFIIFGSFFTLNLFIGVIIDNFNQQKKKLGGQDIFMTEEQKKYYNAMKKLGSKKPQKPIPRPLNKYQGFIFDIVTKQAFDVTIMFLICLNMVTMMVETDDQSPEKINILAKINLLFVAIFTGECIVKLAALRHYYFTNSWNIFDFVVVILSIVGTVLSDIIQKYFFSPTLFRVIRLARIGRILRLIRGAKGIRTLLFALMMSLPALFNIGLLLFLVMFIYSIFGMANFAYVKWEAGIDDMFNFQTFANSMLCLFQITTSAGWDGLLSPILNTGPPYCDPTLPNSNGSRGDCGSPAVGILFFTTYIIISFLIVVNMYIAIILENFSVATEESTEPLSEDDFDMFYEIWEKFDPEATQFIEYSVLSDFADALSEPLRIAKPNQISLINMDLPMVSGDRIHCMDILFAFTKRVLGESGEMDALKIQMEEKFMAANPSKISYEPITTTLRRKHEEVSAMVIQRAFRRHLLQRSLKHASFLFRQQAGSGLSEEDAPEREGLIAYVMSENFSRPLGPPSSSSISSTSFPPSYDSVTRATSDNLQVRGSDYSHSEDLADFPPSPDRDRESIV
For assay [5], the target named is T3, Endothelin receptor type B (Homo sapiens, UniProt P24530).
T3 sequence (P24530 whole entry): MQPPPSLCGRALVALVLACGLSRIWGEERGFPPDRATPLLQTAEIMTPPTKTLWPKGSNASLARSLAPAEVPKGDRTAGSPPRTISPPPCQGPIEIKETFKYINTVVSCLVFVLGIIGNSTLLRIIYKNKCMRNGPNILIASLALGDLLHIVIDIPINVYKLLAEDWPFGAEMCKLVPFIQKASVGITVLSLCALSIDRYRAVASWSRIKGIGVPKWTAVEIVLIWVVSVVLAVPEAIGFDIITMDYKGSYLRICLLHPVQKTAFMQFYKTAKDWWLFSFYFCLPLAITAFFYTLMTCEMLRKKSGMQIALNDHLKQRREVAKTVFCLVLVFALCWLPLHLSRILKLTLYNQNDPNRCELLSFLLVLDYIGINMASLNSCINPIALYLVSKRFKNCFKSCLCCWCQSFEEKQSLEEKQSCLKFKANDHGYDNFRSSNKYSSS

For assay [6], the target named is Neurotensin receptor type 1 (Homo sapiens, UniProt P30989).
Chain of Neurotensin receptor type 1 (P30989 whole entry): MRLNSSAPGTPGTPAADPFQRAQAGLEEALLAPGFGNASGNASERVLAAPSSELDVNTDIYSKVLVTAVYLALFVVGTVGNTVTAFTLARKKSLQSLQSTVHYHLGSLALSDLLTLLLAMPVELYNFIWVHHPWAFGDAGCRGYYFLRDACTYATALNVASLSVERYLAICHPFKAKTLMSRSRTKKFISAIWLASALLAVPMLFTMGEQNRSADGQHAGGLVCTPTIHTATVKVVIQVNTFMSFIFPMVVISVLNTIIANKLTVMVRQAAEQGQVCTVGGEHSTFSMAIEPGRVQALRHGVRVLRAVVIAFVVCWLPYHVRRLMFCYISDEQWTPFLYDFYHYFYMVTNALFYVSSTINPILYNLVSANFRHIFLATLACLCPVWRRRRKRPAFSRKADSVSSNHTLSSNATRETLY
Assay [7] concerns the target Gamma-aminobutyric acid type B receptor subunit 1 (Homo sapiens, UniProt Q9UBS5).
In a further assay the target is T4, B1 bradykinin receptor (Homo sapiens, UniProt P46663).
T4 sequence (P46663 whole entry): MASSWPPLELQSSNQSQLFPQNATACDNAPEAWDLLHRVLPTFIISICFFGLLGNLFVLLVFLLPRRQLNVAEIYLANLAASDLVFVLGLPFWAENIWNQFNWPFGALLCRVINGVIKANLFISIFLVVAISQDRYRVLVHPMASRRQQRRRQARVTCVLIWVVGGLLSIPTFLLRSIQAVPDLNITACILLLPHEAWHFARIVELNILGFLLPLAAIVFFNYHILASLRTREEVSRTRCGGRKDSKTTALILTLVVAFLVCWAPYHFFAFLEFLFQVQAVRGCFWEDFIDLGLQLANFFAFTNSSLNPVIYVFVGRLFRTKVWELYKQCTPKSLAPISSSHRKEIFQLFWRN

Assay [8] has as its target T5, Gastric inhibitory polypeptide receptor (Homo sapiens, UniProt P48546).
T5 sequence (P48546 whole entry): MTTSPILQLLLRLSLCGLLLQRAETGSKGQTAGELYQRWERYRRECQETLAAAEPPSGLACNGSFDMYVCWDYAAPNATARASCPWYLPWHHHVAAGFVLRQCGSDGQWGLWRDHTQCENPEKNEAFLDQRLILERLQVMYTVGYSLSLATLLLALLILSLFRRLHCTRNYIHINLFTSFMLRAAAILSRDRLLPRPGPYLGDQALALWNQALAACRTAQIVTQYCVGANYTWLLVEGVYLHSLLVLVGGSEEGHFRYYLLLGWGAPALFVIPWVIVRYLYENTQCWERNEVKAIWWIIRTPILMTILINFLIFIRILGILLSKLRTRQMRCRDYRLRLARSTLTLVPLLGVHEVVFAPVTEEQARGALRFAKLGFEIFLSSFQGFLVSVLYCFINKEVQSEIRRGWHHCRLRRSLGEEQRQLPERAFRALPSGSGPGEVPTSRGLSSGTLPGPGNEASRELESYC

The target in a further assay is Histamine H1 receptor (Homo sapiens, UniProt P35367). Type of assay: functional, cell-based.
Chain of Histamine H1 receptor (P35367 whole entry): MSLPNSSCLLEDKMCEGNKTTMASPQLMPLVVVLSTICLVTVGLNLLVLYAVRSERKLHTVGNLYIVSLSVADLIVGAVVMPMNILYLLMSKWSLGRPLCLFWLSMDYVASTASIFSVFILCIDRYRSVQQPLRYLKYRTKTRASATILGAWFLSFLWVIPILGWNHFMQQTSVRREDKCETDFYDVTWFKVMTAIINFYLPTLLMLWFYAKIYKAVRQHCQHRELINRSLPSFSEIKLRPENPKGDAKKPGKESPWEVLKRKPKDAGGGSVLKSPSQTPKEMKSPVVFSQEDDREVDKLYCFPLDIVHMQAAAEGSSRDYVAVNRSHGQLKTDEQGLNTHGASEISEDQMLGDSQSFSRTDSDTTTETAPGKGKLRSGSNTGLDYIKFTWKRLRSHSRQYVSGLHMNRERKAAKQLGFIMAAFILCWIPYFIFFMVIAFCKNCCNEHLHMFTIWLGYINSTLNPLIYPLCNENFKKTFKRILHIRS
The target in assay [9] is 5-hydroxytryptamine receptor 6 (Homo sapiens, UniProt P50406).
Chain of 5-hydroxytryptamine receptor 6 (P50406 whole entry): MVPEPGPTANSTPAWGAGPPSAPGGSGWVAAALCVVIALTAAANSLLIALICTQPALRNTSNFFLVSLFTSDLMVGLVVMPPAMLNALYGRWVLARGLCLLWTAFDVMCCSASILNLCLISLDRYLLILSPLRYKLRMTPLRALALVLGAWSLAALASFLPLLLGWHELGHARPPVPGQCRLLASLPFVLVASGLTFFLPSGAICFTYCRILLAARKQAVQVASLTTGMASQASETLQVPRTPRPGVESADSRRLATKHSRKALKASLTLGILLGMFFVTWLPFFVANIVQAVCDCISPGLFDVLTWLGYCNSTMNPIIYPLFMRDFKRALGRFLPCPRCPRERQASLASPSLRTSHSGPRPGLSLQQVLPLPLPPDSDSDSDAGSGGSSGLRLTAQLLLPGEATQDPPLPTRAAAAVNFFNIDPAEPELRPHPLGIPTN
The target of assay [10] is Rod cGMP-specific 3',5'-cyclic phosphodiesterase subunit alpha (Homo sapiens, UniProt P16499). The assay is classed as functional.

The source of these data is ChEMBL document CHEMBL5291721, “A preclinical secondary pharmacology resource illuminates target-adverse drug reaction associations of marketed drugs” (Nat Commun, 2023).

Usually AC50 stands for the concentration at which the activity in the assay is half-maximal.

Where only a bound is given, the exact number is not on record here.
Also: assay procedure not described here.

Chain of D(1A) dopamine receptor (P21728 whole entry): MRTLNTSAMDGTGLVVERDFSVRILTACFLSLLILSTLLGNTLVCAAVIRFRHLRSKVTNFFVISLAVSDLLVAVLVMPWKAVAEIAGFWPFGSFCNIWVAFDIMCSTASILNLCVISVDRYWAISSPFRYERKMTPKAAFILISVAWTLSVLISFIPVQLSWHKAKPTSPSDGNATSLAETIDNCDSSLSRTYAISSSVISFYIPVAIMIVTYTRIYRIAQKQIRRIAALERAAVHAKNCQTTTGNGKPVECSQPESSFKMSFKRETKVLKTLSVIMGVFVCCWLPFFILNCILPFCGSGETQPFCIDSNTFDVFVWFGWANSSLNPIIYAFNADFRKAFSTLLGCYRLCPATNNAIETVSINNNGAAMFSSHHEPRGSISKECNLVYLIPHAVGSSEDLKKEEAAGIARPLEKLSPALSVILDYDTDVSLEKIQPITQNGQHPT
Chain of Beta-1 adrenergic receptor (P08588 whole entry): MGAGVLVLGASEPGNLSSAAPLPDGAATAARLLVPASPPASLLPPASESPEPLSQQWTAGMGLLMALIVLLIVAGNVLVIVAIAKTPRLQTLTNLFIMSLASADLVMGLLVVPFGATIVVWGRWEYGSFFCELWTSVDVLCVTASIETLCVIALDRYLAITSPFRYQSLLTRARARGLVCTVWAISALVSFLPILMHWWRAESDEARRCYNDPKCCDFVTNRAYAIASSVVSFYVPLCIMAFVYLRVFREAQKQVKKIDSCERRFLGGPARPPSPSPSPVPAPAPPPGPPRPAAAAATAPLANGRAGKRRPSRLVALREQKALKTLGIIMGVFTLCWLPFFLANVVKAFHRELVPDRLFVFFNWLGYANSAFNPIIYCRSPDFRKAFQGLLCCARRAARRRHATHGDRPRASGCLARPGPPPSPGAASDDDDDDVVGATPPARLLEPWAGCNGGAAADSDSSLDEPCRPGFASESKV
Chain of Histamine H2 receptor (P25021 whole entry): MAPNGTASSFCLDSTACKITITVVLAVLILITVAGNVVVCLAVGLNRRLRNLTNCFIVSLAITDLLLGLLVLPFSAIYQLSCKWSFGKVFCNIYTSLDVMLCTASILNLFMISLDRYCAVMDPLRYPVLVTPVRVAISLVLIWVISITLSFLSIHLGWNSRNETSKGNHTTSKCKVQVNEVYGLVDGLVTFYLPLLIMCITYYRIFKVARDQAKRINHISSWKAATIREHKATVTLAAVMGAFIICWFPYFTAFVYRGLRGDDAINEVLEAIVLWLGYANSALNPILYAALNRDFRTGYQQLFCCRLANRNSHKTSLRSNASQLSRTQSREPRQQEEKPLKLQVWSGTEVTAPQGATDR
Chain of Substance-P receptor (P25103 whole entry): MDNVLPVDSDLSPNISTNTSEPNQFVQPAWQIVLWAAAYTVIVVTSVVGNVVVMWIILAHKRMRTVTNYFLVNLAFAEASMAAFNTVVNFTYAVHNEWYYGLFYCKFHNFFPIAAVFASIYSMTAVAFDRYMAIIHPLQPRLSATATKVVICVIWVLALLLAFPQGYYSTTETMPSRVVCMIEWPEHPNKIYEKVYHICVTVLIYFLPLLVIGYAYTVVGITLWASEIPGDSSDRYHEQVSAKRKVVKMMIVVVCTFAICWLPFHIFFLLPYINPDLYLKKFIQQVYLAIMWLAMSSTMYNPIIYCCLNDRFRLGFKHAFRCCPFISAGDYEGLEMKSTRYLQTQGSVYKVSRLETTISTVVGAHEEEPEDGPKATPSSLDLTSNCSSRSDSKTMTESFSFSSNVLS

In assay [1], `CC(C)N(CCCCOCC(=O)O)c1cnc(-c2ccccc2)c(-c2ccccc2)n1` displayed a half-maximal activity concentration (AC50) above 30 µM.
Molecule `Cc1cc(=O)n(-c2ccccc2)n1C` [ANTIPYRINE] came in with an AC50 in assay [2] above 10 µM.
`NS(=O)(=O)c1cc2c(cc1Cl)N=C(CSCc1ccccc1)NS2(=O)=O` [BENZTHIAZIDE] gave an AC50 in assay [2] of 2.48 µM.
As to `O=C(CCCN1CCC(O)(c2ccc(Br)cc2)CC1)c1ccc(F)cc1` [BROMPERIDOL], in assay [1], the AC50 was above 30 µM.
`CO/N=C(\C(=O)N[C@@H]1C(=O)N2C(C(=O)O)=CCS[C@H]12)c1csc(N)n1` [CEFTIZOXIME] yielded an AC50 in assay [3] above 30 µM.
On to `CO/N=C(\C(=O)N[C@@H]1C(=O)N2C(C(=O)O)=C(CSc3nc(=O)c(=O)[nH]n3C)CS[C@H]12)c1csc(N)n1` [CEFTRIAXONE], for which the AC50 is 1.4 µM in [3] and above 50 µM in [4].
Consider `COc1cc(N)c(Cl)cc1C(=O)NC1CCN(CCCOc2ccc(F)cc2)CC1OC` (stereo unspecified) [CISAPRIDE], for which the AC50 in [5] was above 30 µM; in assay [6] it was above 30 µM; in assay [7], above 10 µM; in assay [4], above 50 µM; at Histamine H2 receptor, above 10 µM; at B1 bradykinin receptor, above 30 µM. For the same molecule, the AC50 in assay [8] was above 30 µM; on D(1A) dopamine receptor it was above 10 µM.
Take `CC(CN(C)C)C(C)(O)Cc1ccc(Cl)cc1` (stereo unspecified) [CLOBUTINOL]: the AC50 at Histamine H1 receptor was above 30 µM.
Regarding `CCOC(=O)C(C)(C)Oc1ccc(Cl)cc1` [CLOFIBRATE], the AC50 in [3] was above 30 µM; in assay [5] it was above 30 µM; in [6], above 30 µM; on B1 bradykinin receptor, above 30 µM; in assay [8], above 30 µM; on D(1A) dopamine receptor, above 10 µM.
Consider `CC(C)NC[C@H](O)COc1ccc(CC(N)=O)cc1` [ESATENOLOL], for which the AC50 is above 30 µM in [5]; above 30 µM in assay [6]; above 10 µM in assay [9]; above 10 µM in assay [2]; above 10 µM at Histamine H2 receptor; above 10 µM on Substance-P receptor. For the same molecule, the AC50 (on B1 bradykinin receptor; in [8]) was above 30 µM throughout.
In the case of `NNC(=O)c1ccncc1` [ISONIAZID], the AC50 in assay [5] was above 30 µM; in [6] it was above 30 µM; in [9], above 10 µM; in assay [2] it was above 10 µM; on Histamine H2 receptor, above 10 µM; at Substance-P receptor it was above 10 µM. The figures for the AC50 (on B1 bradykinin receptor; in [8]; on D(1A) dopamine receptor) were above 30 µM, above 30 µM and above 10 µM, respectively.
Take `COc1ccc(CN2CCN(C(c3ccc(F)cc3)c3ccc(F)cc3)CC2)c(OC)c1OC` [LOMERIZINE]: the AC50 in assay [4] turned out to be 16 µM. This counts as double-digit micromolar.
Consider `O=C1Nc2ccc(Cl)cc2C(c2ccccc2Cl)=NC1O` (stereo unspecified) [LORAZEPAM], for which the AC50 in assay [5] is above 30 µM; in [6], above 30 µM; in assay [2], above 10 µM; at Histamine H2 receptor, above 10 µM; at Substance-P receptor it was above 10 µM; on B1 bradykinin receptor it was above 30 µM. Moreover, the AC50 in assay [8] was above 30 µM; on D(1A) dopamine receptor, above 10 µM.
`CN1CCN=C(c2ccccc2)c2cc(Cl)ccc21` [MEDAZEPAM] had an AC50 in [1] above 30 µM.
Consider `Cc1ccnc2c1NC(=O)c1cccnc1N2C1CC1` [NEVIRAPINE], for which the AC50 is above 30 µM in assay [5]; above 30 µM in [6]; above 10 µM in assay [9]; above 10 µM in assay [2]; above 10 µM on Histamine H2 receptor; above 10 µM on Substance-P receptor. Also, the AC50 at B1 bradykinin receptor was above 30 µM; in assay [8], above 30 µM; at D(1A) dopamine receptor, above 10 µM; in assay [10], above 10 µM.
Molecule `O=C(NCCO[N+](=O)[O-])c1cccnc1` [NICORANDIL] yielded an AC50 on Histamine H1 receptor above 30 µM.
Still for that read-out and setting: the value for `O=c1[nH]c2ccccc2n1CCCN1CCN(C(c2ccccc2)c2ccccc2)CC1` [OXATOMIDE] was above 30 µM.
With `COc1cc2[nH]c(C)c(CCN3CCN(c4ccccc4)CC3)c2cc1OC` [OXYPERTINE], the AC50 on Histamine H1 receptor was above 30 µM.
The same measure, in the same setting: as for `COc1cc(C(=O)OCc2cccc(COC(=O)c3cc(OC)c(OC)c(OC)c3)n2)cc(OC)c1OC` [PIROZADIL], the figure is above 30 µM.
`CCC(NC(C)C)C(O)c1ccc(O)c2[nH]c(=O)ccc12` (stereo unspecified) [PROCATEROL] showed an AC50 at D(1A) dopamine receptor above 30 µM.
For `CCC(=O)O[C@](Cc1ccccc1)(c1ccccc1)[C@H](C)CN(C)C` [PROPOXYPHENE], the AC50 in [5] is above 30 µM; in assay [6] it was above 30 µM; in assay [2], above 10 µM; at Histamine H2 receptor it was 4.95 µM; on Substance-P receptor, above 10 µM; at B1 bradykinin receptor, above 30 µM. The results for the AC50 (in [8]; at D(1A) dopamine receptor) were above 30 µM and above 10 µM, respectively.
`CCc1nc(N)nc(N)c1-c1ccc(Cl)cc1` [PYRIMETHAMINE] returned an AC50 in assay [2] above 10 µM.
Regarding `O=c1c(O)c(-c2ccc(O)c(O)c2)oc2cc(O)cc(O)c12` [QUERCETIN], the AC50 in assay [5] was above 30 µM; in assay [6], above 30 µM; in [2], above 10 µM; at Histamine H2 receptor, above 10 µM; at B1 bradykinin receptor it was above 30 µM; in [8], above 30 µM. Further, on D(1A) dopamine receptor, the AC50 was above 10 µM.
On to `CCN1CCCC1CNC(=O)c1cc(S(=O)(=O)CC)ccc1OC` (stereo unspecified) [SULTOPRIDE], for which the AC50 at Histamine H1 receptor was above 30 µM.
On to `C=CCN1CCc2nc(N)sc2CC1` [TALIPEXOLE], for which the AC50 in assay [2] was 0.98 µM; in assay [1] it was above 30 µM.
Regarding `CCOC(=O)[C@@H](N)Cc1ccc(-c2cc(O[C@H](c3ccc(Cl)cc3-n3ccc(C)n3)C(F)(F)F)nc(N)n2)cc1` [TELOTRISTAT ETHYL], the AC50 in assay [3] is above 30 µM; in assay [4], above 1 µM.
`CCCCCCCC(=O)CC[C@@H]1[C@@H](C/C=C\CCCC(=O)OC(C)C)[C@@H](O)C[C@H]1O` [UNOPROSTONE ISOPROPYL] came in with a half-maximal activity concentration (AC50) in assay [4] of 27 µM.
